Data published in PubChem BioAssay (NCI).
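Grown in 96-well plates, cells were treated for 48 hours with each compound at five concentrations. Insufficient inhibition: endpoint recorded as highest concentration tested. GI50 is the concentration that inhibits growth by half. TGI: total growth inhibition.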

Experiments:
Assay in all cases: inhibition of tumour cell growth, NCI panel, 48 h
[1] = test system: COLO 205 colon
[2] = test system: HOP-92 NSCLC
[3] = test system: M14 melanoma
[4] = test system: OVCAR-3 ovarian
[5] = test system: RPMI-8226 leukemia
[6] = test system: SF-268 CNS
[7] = test system: SF-539 CNS
[8] = test system: SK-MEL-28 melanoma
[9] = test system: U251 CNS
[10] = test system: NCI-H522 lung

| SMILES | GI50 [1] [µM] | TGI [1] [µM] | GI50 [2] [µM] | TGI [2] [µM] | GI50 [3] [µM] | TGI [3] [µM] | GI50 [4] [µM] | TGI [4] [µM] | GI50 [5] [µM] | TGI [5] [µM] | GI50 [6] [µM] | TGI [6] [µM] | GI50 [7] [µM] | TGI [7] [µM] | GI50 [8] [µM] | TGI [8] [µM] | GI50 [9] [µM] | TGI [9] [µM] | GI50 [10] [µM] | TGI [10] [µM] |
| --- | --- | --- | --- | --- | --- | --- | --- | --- | --- | --- | --- | --- | --- | --- | --- | --- | --- | --- | --- | --- |
| O=[N+]([O-])/C=C\c1ccc2c(c1)OCO2 | 3.71 | 13.4 | 12.5 | 30.9 | 2.08 | 4.77 | 4.1 | 15.2 | 1.77 | 5.07 | 10.5 | 22.4 | 3.08 | 9.35 | 4.7 | 16.4 | 1.95 | 5.02 |  |  |
| CN(C)CCNc1cccc2sc3ccc(O)cc3c(=O)c12 | 3.92 | 15.3 |  |  | 1.85 | 4.33 | 3.28 | 11.5 | 1.84 | 4.98 | 3.18 | 14.6 | 1.77 | 4.01 | 1.74 | 3.88 |  |  | 1.77 | 5.66 |
| Cn1cc(NC(=O)c2cc(NC(=O)CCCCCC(=O)Nc3cc(C(=O)Nc4cc(C(=O)NCCC(=N)N)n(C)c4)n(C)c3)cn2C)cc1C(=O)NCCC(=N)N |  | > 100 |  | > 100 |  | > 100 |  | > 100 |  |  |  | > 100 |  | > 100 |  | > 100 |  | > 100 |  |  |
| CCOC(=O)C(=O)Nc1c(C)cccc1CC |  |  |  | > 100 |  | > 100 |  | > 100 |  | > 100 |  | > 100 |  | > 100 |  | > 100 |  | > 100 |  | > 100 |
| COC(=O)/C(=N/NC(C)(C)C)C(C(=O)C=C(C)C)C(=O)C(=O)Nc1ccc(Cl)cc1C (stereo unspecified) |  | > 100 |  |  |  | > 100 |  | > 100 |  | > 100 |  | > 100 |  | > 100 |  | > 100 |  | > 100 |  | > 100 |
| O=C1/C(=C\c2cccs2)Oc2ccccc21 |  | > 100 |  | 89 |  | > 100 |  | > 100 |  | > 100 |  | > 100 |  |  |  | > 100 |  | > 100 |  | > 100 |
| Cn1nnnc1[N-]Cc1ccccc1.[Au+].c1ccc([PH+](c2ccccc2)c2ccccc2)cc1 | 2.29 | 5.81 | 2.44 | 4.68 | 1.67 | 3.83 | 2.47 | 5.2 | 1.23 | 4.37 | 3.45 | 14 | 8.93 | 23.2 | 2.53 | 7.23 | 3.41 | 11.8 |  |  |
| N#CC1C(N)=NNC1c1ccc(-c2ccc(-c3nc4ccccc4o3)cc2)o1 (stereo unspecified) | 30.9 | > 100 | 18.2 | > 100 | 63.7 | > 100 | 2.12 | 13.2 | 28.6 | > 100 | 20 | 51.7 |  |  | 26 | > 100 | 28.4 | > 100 | 53.4 | > 100 |
| O=C1c2cccc3cc([N+](=O)[O-])cc(c23)C(=O)N1CCCN1CCN(CCCN2C(=O)c3cccc4cc([N+](=O)[O-])cc(c34)C2=O)CC1 |  | 2.67 |  | 5.2 |  | 4.87 |  | 4.81 |  | > 100 |  |  |  | 12 |  |  |  | 19.3 |  |  |
| c1cncc(C2c3[nH]c4ccccc4c3CCN2CCN2CCCCC2)c1 (stereo unspecified) |  |  |  | > 100 |  | 32.3 |  | > 100 |  | > 100 |  | > 100 |  | > 100 |  | > 100 |  | > 100 |  | > 100 |
| CCOC(=O)c1c2ccc(/C=C/C(=O)OC)ccc-2c(C(=O)OCC)c1N |  | > 100 |  | > 100 |  | > 100 |  | > 100 |  |  |  | 9.68 |  | > 100 |  | 8.42 |  |  |  | > 100 |
| Cc1ccc(S(=O)(=O)NCCN2c3nc4ccccc4cc3Sc3cc4ccccc4nc32)cc1 | > 100 | > 100 | 2.19 | 13.3 | > 100 | > 100 | > 26.8 | > 100 |  |  | 11.4 | > 100 | 4.79 | 20.5 | > 100 | > 100 | 4.93 | > 89.9 | 44.4 | > 100 |
| NC(N)=NNC(=O)C(=O)O |  | > 100 |  |  |  | > 100 |  | > 100 |  | > 100 |  | > 100 |  | > 100 |  | > 100 |  | > 100 |  | > 100 |
| CCCCCCCCCCCCC(SCCNC(=O)CCNC(=O)C(O)C(C)(C)COP(=O)(O)OP(=O)(O)OCC1OC(n2cnc3c(N)ncnc32)C(O)C1OP(=O)(O)O)C(=O)NCC(N)=O (stereo unspecified) |  | > 100 |  | > 100 |  | > 100 |  | > 100 |  |  |  | > 100 |  | > 100 |  | > 100 |  | > 100 |  | > 100 |
| CCCN(CCC)c1c([N+](=O)[O-])cc(S(N)(=O)=O)cc1[N+](=O)[O-] |  | 43.1 |  |  |  | 30.9 |  | 31.8 |  | 76.4 |  | 32.8 |  | 35.9 |  | 36.3 |  | 26.9 |  | 31.5 |
| CCCCCCCCCCCC(=O)C1=C(O)C(O)CCC1=O (stereo unspecified) |  | 28.9 |  | 48.3 |  |  |  | 38.3 |  |  |  | > 100 |  | 45.4 |  | 38.6 |  | 55.5 |  | 33.1 |
| O=C(Nc1ccc(Br)cc1)c1cc(Br)cc(Br)c1O | 2.33 | 4.59 |  |  | 2.99 | 11.3 | 2.95 | 8 | 1.67 | 6.26 | 3.59 | 18.6 | 2.89 | 12.4 | 4.71 | 31.4 | 2.79 | 23.1 | 2.23 | 7.7 |
| CC(C)(C)C([O-])=C1C(=O)c2ccccc2C1=O.CC(C)(C)C([O-])=C1C(=O)c2ccccc2C1=O.CC[O-].CC[O-].[Ti+4] | 22.7 | 44.7 | 26.9 | > 100 | 57.4 | > 100 | 27.9 | 91.4 |  |  | 70.6 | > 100 | 50.8 | > 100 | > 100 | > 100 | 41.6 | > 100 | 21.7 | 54.2 |
| C=CCN(N=O)C(=O)N(CCC)CCCC(NC(C)=O)C(=O)NCc1ccccc1 (stereo unspecified) |  | > 100 |  |  |  | > 100 |  | > 100 |  | > 100 |  | > 100 |  | > 100 |  | > 100 |  | > 100 |  | > 100 |
| CC1(C)OC2C(=O)OC(COCc3ccccc3)C2O1 (stereo unspecified) |  | > 100 |  | > 100 |  | > 100 |  | > 100 |  | > 100 |  | > 100 |  | > 100 |  | > 100 |  | > 100 |  |  |
| Cn1c(=O)c2c(nc3n2CCC(=O)N3)n(C)c1=O |  | > 100 |  | > 100 |  |  |  |  |  |  |  | > 100 |  | > 100 |  | > 100 |  | > 100 |  | > 100 |
| NC(N)=N/N=C/c1c(-c2cc(Cl)sc2Cl)nc2n1CCS2 |  |  |  |  | 6.93 | 14.3 | 8.81 | 17.3 | 9.34 | 19.4 | 11.3 | 23.5 | 7.43 | 15.2 |  |  | 7.61 | 14.4 | 20.4 | > 50 |
| Cc1ccc(-n2c(C)nc3c2C(=O)c2ccccc2C3=O)cc1 |  | 41.8 |  | > 100 |  | > 100 |  | 73.2 |  |  |  | > 100 |  | 86.1 |  | > 100 |  | > 100 |  | > 100 |
| CCOC(=O)/C=C/c1ccc(C(=O)OCC)[nH]1 | 2.82 | 8.38 |  |  | 2.82 | > 100 | 2.38 | 7.64 | 5.32 | > 100 | 6.65 | > 100 | 5.91 | 42.5 | 33.7 | > 100 | 3.92 | > 100 | 2.69 | 8.89 |
| OC1CCC(C2C3CCCCC3C3CCCCC3C2C2CCC(O)CC2)CC1 (stereo unspecified) |  |  |  | 98.9 |  | > 100 |  | > 100 |  | 59.1 |  | 14.5 |  | 75.5 |  | 9.59 |  | 14 |  | 6.37 |
| COC(=O)c1ccc(OCc2ccc3oc(=O)c(-c4ccccc4)nc3c2)cc1 |  | > 100 |  |  |  | > 100 |  | > 100 |  | > 100 |  | > 100 |  | > 100 |  | > 100 |  | > 100 |  | > 100 |
| CN(C)CCNC(=O)c1cccc(CO)c1[N+](=O)[O-] |  | > 100 |  |  |  | > 100 |  | > 100 |  |  |  | > 100 |  | > 100 |  | > 100 |  | > 100 |  | > 100 |
| CCN(CC)C(=S)SSC1CCCCC1 |  |  | 14.3 | 40 | 14.4 | 30.9 |  |  | 9.99 | 31.4 | 23.1 | 60.9 | 15.3 | 31.7 | 19.9 | 42.2 | 14.2 | 29.1 | 2.91 | 12.7 |
